We go through 22 compounds from patent US9796706B2, “Inhibitors of Jun N-terminal kinase” (IMAGO PHARMACEUTICALS, INC., priority 2009, dated 2017).

Molecules are shown by their SMILES.

What all share (format): biochemical
Holding throughout (conditions): procedures of Example 14 (TR-FRET)
Background: Time-resolved FRET reads energy transfer from a long-lived donor to a nearby acceptor.

For one assay, the target named is JNK3 (Homo sapiens (Human), UniProt P53779). The experiment in a line: JNK3 TR-FRET kinase assay (Example 14). As for the experimental part: (§1) 14.3. Active JNK 1, 2 and 3 TR-FRET Assay
JNK3, sequence (P53779 whole entry, species assumed): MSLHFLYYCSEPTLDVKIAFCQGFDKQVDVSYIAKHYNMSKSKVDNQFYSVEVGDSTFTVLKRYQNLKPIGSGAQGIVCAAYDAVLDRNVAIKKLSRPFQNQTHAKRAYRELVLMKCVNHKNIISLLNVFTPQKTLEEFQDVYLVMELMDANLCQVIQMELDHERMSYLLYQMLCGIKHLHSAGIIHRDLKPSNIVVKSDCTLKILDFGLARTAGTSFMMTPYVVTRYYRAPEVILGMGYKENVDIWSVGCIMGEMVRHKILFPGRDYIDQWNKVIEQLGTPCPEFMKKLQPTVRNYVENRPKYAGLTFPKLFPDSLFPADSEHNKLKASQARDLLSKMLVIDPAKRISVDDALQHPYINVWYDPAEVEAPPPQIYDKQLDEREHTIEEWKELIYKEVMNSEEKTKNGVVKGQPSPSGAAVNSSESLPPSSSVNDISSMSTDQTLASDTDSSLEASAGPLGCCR
(§2) (1) Assay buffer #1 with 0.0025% Tween and 1 mM DTT was prepared using JNK buffer stock solution.
(§3) (2) Assay buffer #2 with 0.025% BSA was prepared using the assay buffer #1.
(§4) (3) Test compound solution preparation: 5× compound solution was prepared using assay buffer #1 with 5% DMSO. The compound solution (10 μl/well) was added to a 384-well plate (Corning, Cat No. 3654).
(§5) (4) aJNK1, 2 or 3 preparation: aJNK stock (100 μg/ml) at −80° C. was thawed on ice and an aJNK (1.6 ng/ml) solution was prepared using assay buffer #2. The aJNK solution (20 μl/well) was added to the plate and the plate was shaken. The enzyme was incubated with the compound at RT for 10 min. (5) ATP/substrate solution preparation: ATP and substrate stocks were thawed on ice. 2.5×ATP/substrate (e.g., 25 μM or 2.5 mM ATP/50 nM EPIW-1) was prepared using assay buffer #1. The ATP/substrate (20 μl/well) was added to the plate and the plate was shaken. The plate was incubated at RT for 15 min. Note: In an exemplary assay, the final ATP concentration was about 1 mM. (6) EDTA preparation: 30 mM EDTA was prepared using 0.5M EDTA stock and assay buffer #1. The EDTA (10 μl/well) was added to the plate to quench the enzyme reaction and the plate was shaken well. (7) Detection reagent preparation: Eu-63 and SA-XL stocks were thawed on ice. 4× Eu-63/SA-XL (2 nM Eu-63/9.4 nM SA-XL) was prepared using JNK detection buffer. The Eu-63/SA-XL solution (20 μl/well) was added to the plate and the plate was shaken. The plate was incubated at RT for 1 hr before reading the plate on LJL using ratiometric method named HTRF.
(§6) 14.4. Coupled JNK 1, 2 and 3 TR-FRET Assay
(§7) (1) Assay buffer with 0.0025% Tween, 0.01% BSA, and 1 mM DTT was prepared using JNK buffer stock solution.
(§8) (2) Test compound solution preparation: 5× compound solution, including EDTA background, was prepared using assay buffer with 5% DMSO. The compound solution (10 μl/well) was added to a 384-well plate (Corning, Cat No. 3654).
(§9) (3) uJNK1,2, or 3 activation reaction preparation: uJNK activation solution was prepared using assay buffer (1.6 ng/ml MKK4, 1.6 ng/ml MKK7, 16 ng/ml uJNK, and 20 uM ATP final). The uJNK activation solution (35 μl/well) was added to the plate, the plate was shaken, and the reaction mixture was incubated with compound at 30° C. for 60 min. (4) c-Jun substrate solution preparation: 50 nM EPIW-1, c-Jun peptide, was prepared using assay buffer (15 nM final). The EPIW-1 solution (15 μl/well) was added to the plate, the plate was shaken and incubated at 30° C. for 60 min. (5) EDTA preparation: 30 mM EDTA was prepared using 0.5M EDTA stock and assay buffer. The EDTA (10 μl/well) was added to the plate to quench the enzyme reaction and the plate was shaken well. (6) Detection reagent preparation: Eu-73 and SA-XL stocks were thawed on ice. 4× Eu-73/SA-XL (2 nM Eu-73/9.4 nM SA-XL) were prepared using JNK detection buffer. The Eu-73/SA-XL solution (20 μl/well) was added to the plate. The plate was shaken and incubated at RT for 1 hr before reading the plate on LJL using ratiometric method named HTRF.

A further assay has as its target JNK2 (Homo sapiens (Human), UniProt P45984). The assay can be described thus: JNK2 TR-FRET kinase assay (Example 14). As for the experimental part: as §1, §2, §3, §4, §5, §6, §7, §8, §9
The target in a further assay is JNK1 (Homo sapiens (Human), UniProt P45983). The experiment in a line: JNK1 TR-FRET kinase assay (Example 14). As for the experimental part: as §1, §2, §3, §4, §5, §6, §7, §8, §9
JNK1, sequence (P45983 other isoform, or with tags, fused parts or gaps isoform P45983-2, species assumed): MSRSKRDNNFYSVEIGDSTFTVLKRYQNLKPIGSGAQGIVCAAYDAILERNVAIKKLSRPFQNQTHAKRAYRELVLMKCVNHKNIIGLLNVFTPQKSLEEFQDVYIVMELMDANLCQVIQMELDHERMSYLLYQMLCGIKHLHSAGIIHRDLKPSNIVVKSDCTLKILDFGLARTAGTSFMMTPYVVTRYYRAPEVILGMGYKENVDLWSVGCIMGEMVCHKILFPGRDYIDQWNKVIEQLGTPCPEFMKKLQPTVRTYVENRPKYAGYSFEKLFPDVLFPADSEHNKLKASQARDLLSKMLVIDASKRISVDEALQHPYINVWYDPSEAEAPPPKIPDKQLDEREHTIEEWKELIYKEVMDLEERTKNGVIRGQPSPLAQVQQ

JNK2, sequence (P45984 whole entry, species assumed): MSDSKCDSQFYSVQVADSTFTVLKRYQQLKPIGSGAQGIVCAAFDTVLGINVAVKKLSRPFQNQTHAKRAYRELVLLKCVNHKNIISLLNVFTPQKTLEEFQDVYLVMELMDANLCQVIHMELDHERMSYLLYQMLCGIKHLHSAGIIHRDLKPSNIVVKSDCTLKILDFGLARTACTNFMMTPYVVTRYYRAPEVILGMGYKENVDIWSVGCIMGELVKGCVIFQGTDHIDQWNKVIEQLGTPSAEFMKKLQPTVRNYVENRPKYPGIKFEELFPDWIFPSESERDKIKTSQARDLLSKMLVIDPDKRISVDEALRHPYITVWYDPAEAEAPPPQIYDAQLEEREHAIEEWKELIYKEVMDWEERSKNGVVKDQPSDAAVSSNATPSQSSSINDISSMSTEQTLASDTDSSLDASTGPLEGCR

By IC50 is commonly meant the concentration that gives 50% inhibition. A high value points to a need for much substance. As for `O=C(Cc1cccc2ncc(F)cc12)Nc1scc(Br)c1-c1nc[nH]n1` [N-(4-bromo-3-(1H-1,2,4-triazol-3-yl)thiophen-2-yl)-2-(3-fluoroquinolin-5-yl)acetamide], the IC50 on JNK3, against JNK2 and at JNK1 was below 0.1 µM throughout.

For `CCc1n[nH]c(-c2sccc2NC(=O)Cc2ccc(OC)cc2)n1` [N-(2-(3-ethyl-1H-1,2,4-triazol-5-yl)thiophen-3-yl)-2-(4-methoxyphenyl)acetamide], the IC50 against JNK3, against JNK2 and at JNK1 was 0.1 to 10 µM throughout.

`O=C(Cn1c(=O)ccc2cc(C(F)(F)F)ccc21)Nc1ccsc1-c1cscn1` [2-(2-oxo-6-(trifluoromethyl)quinolin-1(2H)-yl)-N-(2-(thiazol-4-yl)thiophen-3-yl)acetamide]: the half-maximal inhibitory concentration (IC50) was below 0.1 µM on JNK3, 0.1 to 10 µM at JNK2 and below 0.1 µM against JNK1.

Turning to `O=C(Cc1cc(C(F)(F)F)c2cccnc2c1)Nc1scc(Br)c1-c1nnc[nH]1` [N-(4-bromo-3-(4H-1,2,4-triazol-3-yl)thiophen-2-yl)-2-(5-(trifluoromethyl)quinolin-7-yl)acetamide], the IC50 on JNK3, on JNK2 and at JNK1 was 0.1 to 10 µM in each case.

For `O=C(CN1C(=O)CCc2ccccc21)Nc1scc(Cl)c1-c1ncn[nH]1` [N-(4-chloro-3-(1H-1,2,4-triazol-5-yl)thiophen-2-yl)-2-(2-oxo-3,4-dihydroquinolin-1(2H)-yl)acetamide], the half-inhibitory concentration (IC50) at JNK3, at JNK2 and against JNK1 was below 0.1 µM in each case.

`Cn1cnc(-c2c(Cl)csc2NC(=O)Cn2c(=O)ccc3cnc(C(F)(F)F)cc32)n1` [N-(4-chloro-3-(1-methyl-1H-1,2,4-triazol-3-yl)thiophen-2-yl)-2-(2-oxo-7-(trifluoromethyl)-1,6-naphthyridin-1(2H)-yl)acetamide]: the half-maximal inhibitory concentration (IC50) against JNK3, against JNK2 and at JNK1 was below 0.1 µM throughout.

On to `O=C(Cc1ccc(C(F)(F)F)c2ncccc12)Nc1scc(Cl)c1-c1ncn[nH]1` [N-(4-chloro-3-(1H-1,2,4-triazol-5-yl)thiophen-2-yl)-2-(8-(trifluoromethyl)quinolin-5-yl)acetamide], for which the values for the IC50 at JNK3, at JNK2 and against JNK1 were 0.1 to 10 µM, 0.1 to 10 µM and below 0.1 µM, respectively.

Take `O=C(Cn1c(=O)ccc2cc(C(F)(F)F)ccc21)Nc1scc(Cl)c1-c1ncn(CCCN2CCOCC2)n1` [N-(4-chloro-3-(1-(3-morpholinopropyl)-1H-1,2,4-triazol-3-yl)thiophen-2-yl)-2-(2-oxo-6-(trifluoromethyl)quinolin-1(2H)-yl)acetamide]: the IC50 on JNK3, against JNK2 and at JNK1 was below 0.1 µM each time.

In the case of `O=C(Cn1c(=O)ccc2cc(C(F)(F)F)ccc21)Nc1scc(Cl)c1-c1ncn(CCCN2CCCC2)n1` [N-(4-chloro-3-(1-(3-(pyrrolidin-1-yl)propyl)-1H-1,2,4-triazol-3-yl)thiophen-2-yl)-2-(2-oxo-6-(trifluoromethyl)quinolin-1(2H)-yl)acetamide], the concentration for half-maximal inhibition (IC50) against JNK3, against JNK2 and against JNK1 was below 0.1 µM throughout.

In the case of `O=C(Cc1ccc(F)c2ncccc12)Nc1scc(Br)c1-c1ncn[nH]1` [N-(4-bromo-3-(1H-1,2,4-triazol-5-yl)thiophen-2-yl)-2-(8-fluoroquinolin-5-yl)acetamide], the values for the IC50 against JNK3, at JNK2 and against JNK1 were below 0.1 µM, 0.1 to 10 µM and below 0.1 µM, respectively.

Turning to `O=C(Cn1c(=O)ccn2nccc12)Nc1scc(Cl)c1-c1ncn[nH]1` [N-(4-chloro-3-(1H-1,2,4-triazol-5-yl)thiophen-2-yl)-2-(5-oxopyrazolo[1,5-a]pyrimidin-4(5H)-yl)acetamide], the concentration for half-maximal inhibition (IC50) on JNK3, on JNK2 and against JNK1 was below 0.1 µM throughout.

In the case of `O=C(Cc1ccc2ccc(C(F)(F)F)nc2c1)Nc1scc(Br)c1-c1nc[nH]n1` [N-(4-bromo-3-(1H-1,2,4-triazol-3-yl)thiophen-2-yl)-2-(2-(trifluoromethyl)quinolin-7-yl)acetamide], the half-inhibitory concentration (IC50) at JNK3, at JNK2 and on JNK1 was 0.1 to 10 µM throughout.

For `COc1ccc(CC(=O)Nc2ccsc2-c2c[nH]c(C)n2)cc1` [2-(4-methoxyphenyl)-N-(2-(2-methyl-1H-imidazol-4-yl)thiophen-3-yl)acetamide], the half-maximal inhibitory concentration (IC50) against JNK3 is above 10 µM; on JNK2 it was above 50 µM; against JNK1 it was above 10 µM.

Turning to `O=C(Cn1c(=O)ccc2cc(F)c(F)cc21)Nc1sccc1-c1ncon1` [N-(3-(1,2,4-oxadiazol-3-yl)thiophen-2-yl)-2-(6,7-difluoro-2-oxoquinolin-1(2H)-yl)acetamide], the figures for the IC50 against JNK3, on JNK2 and at JNK1 were 0.1 to 10 µM, 0.1 to 10 µM and below 0.1 µM, respectively.

Take `N#Cc1csc(NC(=O)Cn2c(=O)ccc3cc(C(F)(F)F)ccc32)c1-c1nccs1` [N-(4-cyano-3-(thiazol-2-yl)thiophen-2-yl)-2-(2-oxo-6-(trifluoromethyl)quinolin-1(2H)-yl)acetamide]: the IC50 at JNK3, against JNK2 and against JNK1 was below 0.1 µM throughout.

In the case of `O=C(Cc1cccc2ccncc12)Nc1scc(Br)c1-c1ncn[nH]1` [N-(4-bromo-3-(1H-1,2,4-triazol-5-yl)thiophen-2-yl)-2-(isoquinolin-8-yl)acetamide], the values for the half-inhibitory concentration (IC50) on JNK3, against JNK2 and against JNK1 were below 0.1 µM, 0.1 to 10 µM and below 0.1 µM, respectively.

Consider `Cc1n[nH]c(-c2c(C)csc2NC(=O)Cc2ccc(OCCCN3CCCCC3)cc2)n1` [N-(4-methyl-3-(3-methyl-1H-1,2,4-triazol-5-yl)thiophen-2-yl)-2-(4-(3-(piperidin-1-yl)propoxy)phenyl)acetamide], for which the 50% inhibitory concentration (IC50) at JNK3, against JNK2 and against JNK1 was 0.1 to 10 µM throughout.

On to `CN1CCN(CCCn2cnc(-c3c(Cl)csc3NC(=O)Cn3c(=O)ccc4cc(C(F)(F)F)ccc43)n2)CC1` [N-(4-chloro-3-(1-(3-(4-methylpiperazin-1-yl)propyl)-1H-1,2,4-triazol-3-yl)thiophen-2-yl)-2-(2-oxo-6-(trifluoromethyl)quinolin-1(2H)-yl)acetamide], for which the IC50 at JNK3 is below 0.1 µM; against JNK2 it was 0.1 to 10 µM; on JNK1, below 0.1 µM.

Turning to `COc1nc(-c2sccc2NC(=O)Cc2cccc3cnccc23)cs1` [2-(isoquinolin-5-yl)-N-(2-(2-methoxythiazol-4-yl)thiophen-3-yl)acetamide], the values for the IC50 at JNK3, against JNK2 and at JNK1 were 0.1 to 10 µM, above 10 µM and 0.1 to 10 µM, respectively.

Turning to `O=C(Cc1ccnc2ccccc12)Nc1scc(Br)c1-c1nnc[nH]1` [N-(4-bromo-3-(4H-1,2,4-triazol-3-yl)thiophen-2-yl)-2-(quinolin-4-yl)acetamide], the IC50 was below 0.1 µM on JNK3, 0.1 to 10 µM against JNK2 and below 0.1 µM at JNK1.

As for `O=C(CN1C(=O)CCc2cnccc21)Nc1ccsc1-c1cscn1` [2-(2-oxo-3,4-dihydro-1,6-naphthyridin-1(2H)-yl)-N-(2-(thiazol-4-yl)thiophen-3-yl)acetamide], the half-inhibitory concentration (IC50) against JNK3, against JNK2 and on JNK1 was 0.1 to 10 µM throughout.

Take `Cc1cn2c(CC(=O)Nc3scc(Br)c3-c3ncn[nH]3)csc2n1` [N-(4-bromo-3-(1H-1,2,4-triazol-5-yl)thiophen-2-yl)-2-(6-methylimidazo[2,1-b]thiazol-3-yl)acetamide]: the figures for the half-inhibitory concentration (IC50) against JNK3, against JNK2 and against JNK1 were 0.1 to 10 µM, 0.1 to 10 µM and below 0.1 µM, respectively.
